Patent publication US20240252651A1, “METHOD OF DELIVERING NUCLEIC ACIDS INTO CELLS” (GUANGZHOU LIDE BIOMEDICINE TECHNOLOGY CO., LTD., priority 2021, published 2024)
Entries after “also recorded” stand apart in the source; their conditions may differ.

How the values were obtained:
[1] = tested on: Hela cells; assay: Transfection of GFP-expressing plasmid DNA in Hela cells (flow cytometer); assay type: cell-based, human; conditions: plasmid DNA 0.5 μg/well, material 0.25 to 8 μg/well (dosages per FIG. 4), 24 h
Description: In this experiment, with GFP-expressing plasmid DNA as a reporter gene, a gene transfection efficiency of a cationic lipid analog material in Hela cells was detected. A specific method was as follows:
Hela cells were inoculated in a 24-well plate and cultured in an incubator for 12 h; each of different cationic lipid analog materials (0.25 μg/well to 8 μg/well) was mixed with GFP-expressing plasmid DNA (0.5 μg/well) in 40 μL of a sodium acetate buffer (25 mM, pH 5.2), and resulting mixtures each were allowed to stand for 10 min and then diluted with 460 μL of an Opti-MEM medium to obtain plasmid DNA-loaded cationic lipid analog complex particle solutions; a medium for the Hela cells in the plate was removed, then the HeLa cells were washed once with PBS, and the complex particle solutions were added; and the cells were cultured for 24 h, and then a plasmid DNA transfection efficiency in cells was analyzed by a flow cytometer. A commercial gene transfection reagent Lipofectamine 2000 was adopted as a positive control.

[2] = tested on: Hela cells; assay: Transfection of luciferase-expressing plasmid DNA in HeLa cells (luciferase expression); assay type: cell-based, human; conditions: plasmid DNA 0.5 μg, 24 h, luciferase expression level, FIG. 5
Description: In this example, with luciferase-expressing plasmid DNA as a reporter gene, a gene transfection efficiency of a cationic lipid analog material in HeLa cells was detected. A specific operation method was as follows: Hela cells were inoculated in a 96-well plate and cultured in an incubator for 12 h; each of different cationic lipid analog materials was mixed with luciferase-expressing plasmid DNA (0.5 μg) in 40 μL of a sodium acetate buffer (25 mM, pH 5.2), and resulting mixtures each were allowed to stand for 10 min and then diluted with 460 μL of an Opti-MEM medium to obtain plasmid DNA-loaded cationic lipid analog complex particle solutions; a medium for the Hela cells in the plate was removed, then the Hela cells were washed once with PBS, and the complex particle solutions were added in a volume of 125 μL; the cells were cultured for 24 h, then a resulting culture supernatant was discarded, and the cells were fully lysed; and a substrate was added at 50 μl/well, and an expression level of luciferase was detected by a multi-mode microplate reader.

[3] = tested on: DC2.4, RAW 264.7, A549, BxPC3, and HeLa cells; assay: Transfection of GFP-expressing plasmid DNA in different types of cells (LSCM); assay type: cell-based, human, mouse; conditions: material 0.5 to 3 μg/well, plasmid DNA 0.5 μg/well, 24 h, FIG. 6
Description: In this experiment, with I2R3C18-1A1 as a representative cationic lipid analog material and GFP-expressing plasmid DNA as a reporter gene, transfection effects of the cationic lipid analog material at different dosages (0.5 μg/well to 3 μg/well) for plasmid DNA (0.5 μg/well) in different types of cells were investigated. A commercial gene transfection reagent Lipofectamine 2000 was adopted as a positive control. In this experiment, a GFP-expressing plasmid DNA-loaded I2R3C18-1A1 particle complex solution was prepared with reference to the method in Example 8 and added to DC2.4, RAW 264.7, A549, BxPC3, and HeLa cells respectively, these cells were cultured for 24 h, and then a transfection efficiency of plasmid DNA in cells was observed by LSCM.

[4] = tested on: DC 2.4 cells; assay: Transfection of eGFP-mRNA in DC 2.4 cells (FCM and LSCM); assay type: cell-based, mouse; conditions: mRNA 0.2 μg/well, material 0.25 to 2 μg/well (dosages per FIG. 7), 24 h, FIG. 7-9
Description: In this experiment, with eGFP-mRNA as model mRNA, an mRNA transfection efficiency of a cationic lipid analog material in DC 2.4 cells was detected. A specific operation method was as follows:
DC 2.4 cells were inoculated in a 48-well plate and cultured in an incubator for 12 h; each of different cationic lipid analog materials (0.25 μg/well to 2 μg/well) was mixed with cGFP-expressing mRNA (0.2 μg/well) in 20 μL of a sodium acetate buffer (25 mM, pH 5.2), and resulting mixtures each were allowed to stand for 10 min and then diluted with 230 μL of a Opti-MEM medium to obtain mRNA-loaded complex particle solutions; a medium for the […] were washed once with PBS, and the complex particle solutions were added; and the cells were cultured for 24 h, an mRNA transfection efficiency in cells was observed by FCM and LSCM. A commercial gene transfection reagent Lipofectamine 2000 was adopted as a positive control.

[5] = tested on: A549 cells (A549-Luc); assay: siRNA transfection, luciferase gene silencing in A549-Luc cells; assay type: cell-based, human; conditions: final siRNA 100 nM, material 0.5 to 3 μg/well, 48 h, FIG. 10
Description: In this experiment, with I2R2C18-1A1, I2R3C18-1A1, I2R2C18-2A1, and I2R3C18-2A1 as representative cationic lipid analog materials, siRNA transfection and delivery effects of the cationic lipid analog materials were detected in A549 cells (A549-Luc). A specific operation method was as follows:
Luciferase-expressing A549 cells (A549-Luc) were inoculated in a 96-well plate and cultured in an incubator for 12 h; each of different materials (0.5 μg/well to 3 μg/well) was mixed with siRNA in 40 μL of a sodium acetate buffer (25 mM, pH 5.2), and resulting mixtures each were allowed to stand for 10 min and then diluted with 460 μL of an Opti-MEM medium to obtain siRNA-loaded complex particle solutions (final siRNA concentration was 100 nM); a medium for the A549-Luc cells in the plate was removed, then the A549-Luc cells were washed once with PBS, and the complex particle solutions each were added in a volume of 125 μL; the cells were cultured for 48 h, then a resulting culture supernatant was discarded, and the cells were fully lysed; and a substrate was added at 50 μl/well, and an expression level of luciferase was detected by a multi-mode microplate reader.

SMILES: CCCCCCCC/C=C\CCCCCCCC(=O)N(CCCN(CC)CC)C(C(=O)NCCOCCOCCNC(=O)C(C(C)C)N(CCCN(CC)CC)C(=O)CCCCCCC/C=C\CCCCCCCC)C(C)C (stereo not drawn) [I2R3C18-1A1]
- transfection efficiency of GFP-expressing plasmid DNA, compared with commercial transfection reagent Lipofectamine 2000 [1]: reaches or is higher than; also recorded: equivalent to or higher than
- transfection efficiency of luciferase-expressing plasmid DNA, compared with Lipofectamine 2000 [2]: equivalent to or higher than
- transfection of GFP-expressing plasmid DNA in different types of cells [3]: can transfect GFP-expressing plasmid DNA into tumor cells and immune cells
- mRNA transfection efficiency (eGFP-mRNA), compared with Lipofectamine 2000 [4]: high transfection efficiency; also recorded: equivalent to or higher than
- gene silencing efficiency as a function of material dosage [5]: increases with the increase of a dosage
- siRNA transfection, silencing of the luciferase reporter gene [5]: efficient gene silencing; also recorded: can transfect siRNA into cells to specifically silence the expression of the luciferase reporter gene
